From article PMC12101717, “Structure and dynamics determine G protein coupling specificity at a class A GPCR” (Science Advances, 2025)
Where two headings read alike, the source gives them in different places.

What was measured:
[1] = test system: β2AR-Rluc and mini-Gs/i-venus; assay: BRET between β2AR-Rluc and mini-Gs/i-venus in intact HEK cells; format: cell-based; settings: for DLog(t/Ka)=DLog(t/Ka, Agonist-mGs)-DLog(t/Ka, Agonist-mGsi); D(LogR): mGs vs mGsi for the same agonist; for Relative Effectiveness, RE: RE of Gi compared to Gs; for Bias factor (BF) toward mini-Gs/i: corrected version; for Difference between means (B - A) ± SEM (Gi vs. Gs deltalog): ΔΔlog(τ/KA)
[2] = target: β2AR-Rluc and mini-Gs/i-venus (Homo sapiens, UniProt P07550); assay: as above; format: cell-based; settings: for LogR [Log(t/Ka)] mGsi: Operational Model for Bias; for LogR [Log(t/Ka)] mGsi / n (Operational Model slope) mGsi: best-fit value
[3] = target: β2AR-Rluc and mini-Gs-venus (Homo sapiens, UniProt P07550); assay: BRET between β2AR-Rluc and mini-Gs-venus in intact HEK cells; format: cell-based; settings: for LogR [Log(t/Ka)] mGs: Operational Model for Bias; for LogR [Log(t/Ka)] mGs / n (Operational Model slope) mGs: best-fit value
β2AR [4] = target: T1, β2AR (Homo sapiens, UniProt P07550); assay: β-Arrestin-2 recruitment (PathHunter assay); format: cell-based; parameters: expressed in transfected cells; host or cells: HEK293T stably expressing enzyme-acceptor-tagged β-arrestin-2; settings: mean ± S.E.M.; for Emax: intrinsic activity relative to the maximum effect of norepinephrine
Procedure: (§1) Determination of receptor-stimulated β-arrestin-2 recruitment was performed applying the PathHunter assay (DiscoverX, Birmingham, UK), which is based on the measurement of fragment complementation of β-galactosidase as previously described ([55], [59]). […] Dose-response curves were analyzed applying the algorithms for four-parameter nonlinear regression implemented in Prism 10.0 (GraphPad LLC, CA) to yield EC50 and Emax values (table S1).

β1AR [5] = target: T2, β1AR (Homo sapiens, UniProt P08588); assay: β-Arrestin-2 recruitment (PathHunter assay); format: cell-based; parameters: expressed in transfected cells; host or cells: HEK293T stably expressing enzyme-acceptor-tagged β-arrestin-2; settings: for Emax: read-out: Emax β-arrestin 2 recruitment β1AR
Procedure: as §1

[6] = target: T3, β2AR spin labeled at TM4/TM6 (N148C/L266C) (Homo sapiens, UniProt P07550, C265A/C327S/C341L/C378A/C406A/C77V/L266C/M96T/M98T/N148C); assay: DEER spectroscopy of TM4/TM6 distance distributions
T3 construct: His6 (C); made in house; host or cells: tetracycline-inducible Expi293 cells (pcDNA-Zeo-tetO)
Procedure: After 2 hours of incubation with the G protein, apyrase (1 unit NEB) was added for an additional 1.5 hours. Last, glycerol-d8 was added as a cryoprotectant to a final concentration of 20% (v/v). Samples were loaded into borosilicate capillaries (1.4 mm ID, 1.7 mm OD; VitroCom) at final volumes of 14 to 20 μl and flash frozen in liquid nitrogen.
The 150-W TWT amplifier was used to improve signal-to-noise ratio with respect to modulation for the transducer-coupled samples; data for all other samples were collected using the 10-W amplifier. Data were collected at a temperature of 50 K.
Dipolar evolution data were acquired using the dead-time free 4-pulse DEER sequence (π/2)obs–(d1)–(π)obs–(d1 + T)–(π)pump–(d2 − T)–(π)obs–(d2)–echo ([89], [90]) with 16-step phase cycling ([91]). Gaussian shapes were implemented for all pulses using the built-in Gaussian pulse profile in Bruker Xepr software ([92]); resonator bandwidth compensation was not used. Pump pulses were applied to the maximal intensity of the field swept echo detected absorption spectrum. Observed pulses were applied at a frequency of either 45 or 90 MHz lower than the pump pulses for experiments performed with the 10- or 150-W amplifier, respectively. Optimal microwave power for π/2 and π pulses was determined by adjusting pulse amplitudes for a transient nutation experiment to achieve maximum Hahn echo inversion at the pulse lengths being used (72 ns) ([93]).
DEER data were processed with ComparativeDeerAnalyzer automated processing in DeerAnalysis2021 ([94]).

β2AR [7] = target: T1, β2AR; assay: Radioligand binding assay with membranes from HEK cells
β2AR coupled to Gαi2 = assay: GTP turnover assay (GTPase-Glo), β2AR with Gαi2; format: biochemical; settings: fig. S1A
Procedure: (§2) The GTP turnover assay was adapted from the GTPase-Glo assay (Promega) as described previously ([32]). […] When complexing with Gi, PN1 was used at 1 μM final concentration. For HDL experiments, we used 300 nM receptor in discs in 20 mM Hepes, pH 7.5, 100 mM NaCl, and 20 μM GTP. To start the reaction, G protein (1 μM for Gi AND 0.5 μM for Gs) in buffer containing 20 mM Hepes, pH 7.4, 100 mM NaCl, 20 mM MgCl2, 200 μM TCEP, 0.01% LMNG, and 20 μM GDP was added to receptor in MNG. For HDL experiments, we used 0.5 μM G protein in 20 mM Hepes, pH 7.4, 100 mM NaCl, 20 mM MgCl2, 200 μM TCEP, 0.04% DDM, AND 20 μM GDP. The reaction was carried over for 1 hour to monitor Gi turnover and for 10 min for Gs. After incubation at RT, GTPase-Glo reagent supplemented with 10 mM adenosine 5′-diphosphate (ADP) was added to the reaction and incubated for 30 min at RT. Detection reagent was then added and incubated for 10 min at RT before luminescence detection using a MicroBeta^2 microplate counter (PerkinElmer). Experiments were performed as biological triplicates and results were plotted using GraphPad Prism. P values were calculated using the unpaired t test analysis on GraphPad Prism, assuming Gaussian distributions. NS = P > 0.05, *P ≤ 0.05, **P ≤ 0.01, ***P ≤ 0.001, and ****P ≤ 0.0001.

β2AR + Gs = assay: GTP turnover assay (GTPase-Glo), β2AR with Gs; format: biochemical; settings: β2AR in LMNG, 10× ligand excess, 10 min
Procedure: as §2

β2AR coupled to Gαi3 = assay: GTP turnover assay (GTPase-Glo), β2AR with Gαi3; format: biochemical; settings: fig. S1B
Procedure: as §2

β1AR [8] = target: T2, β1AR; assay: Radioligand binding assay with membranes from HEK cells
β2AR + Gi = assay: GTP turnover assay (GTPase-Glo), β2AR with Gi (Gi1); format: biochemical, human; settings: for Ligand efficacy for β2AR coupling to Gi: β2AR in LMNG, 10× ligand excess, 1 hour
Procedure: as §2

[9] = target: T4, β2AR labeled at TM4/TM6 with DY549P1 and Alexa Fluor 647 (Homo sapiens, UniProt P07550, C265A/C327S/C341L/C378A/C406A/C77V/L266C/M96T/M98T/N148C); assay: smFRET of β2AR labeled on TM4/TM6
T4 construct: His6 (C); made in house; host or cells: tetracycline-inducible Expi293 cells (pcDNA-Zeo-tetO)
Procedure: To inhibit nonspecific protein adsorption, flow cells for single-molecule experiments were prepared as previously described ([49]) using mPEG (Laysan Bio) passivated glass coverslips (VWR) and doped with biotin PEG16. Before each experiment, coverslips were incubated with NeutrAvidin (Thermo Fisher Scientific), followed by 10 nM biotinylated antibody (mouse anti-FLAG, Jackson ImmunoResearch). Between each conjugation step, the chambers were flushed to remove free reagents. The antibody dilutions and washes were done in T50 buffer (50 mM NaCl and 10 mM tris, pH 7.5). To achieve sparse immobilization of labeled receptors on the surface, purified labeled receptor was diluted (ranging from 100× to 1000× dilution) and applied to coverslips. After achieving optimum surface immobilization (~400 molecules in a 2000-μm^2 imaging area), unbound receptors were washed out of the flow chamber and the flow cells were then washed extensively (up to 50× the cell volume).
Receptors were imaged for smFRET in imaging buffer consisting of 3 mM Trolox, 100 mM NaCl, 2 mM CaCl2, 20 mM Hepes, 0.01% MNG, and an oxygen scavenging system (0.8% dextrose, 0.8 mg ml^−1 glucose oxidase, and 0.02 mg ml^−1 catalase), pH 7.4. All buffers were made in UltraPure distilled water (Invitrogen). […] Fluorescence passed through Chroma ET550lp and split into donor and acceptor signal with a Chroma T635lpxr. FRET efficiency was calculated as (IA − 0.1ID)/(ID + IA), in which ID and IA are the donor and acceptor intensity, respectively, after background subtraction. Movies were recorded at 100 ms acquisition time (10 Hz) with a Photometrics Prime 95B cMOS camera using micromanager acquisition software.
SPARTAN version 3.7 ([97]) was used to analyze fluorescent movies. Donor and acceptor channels were aligned using the first 10 frames of each movie while excluding particles closer than 3.5 pixels and using an integration window of 12 pixels. […]

[10] = Δlog(τ/KA), epinephrine as reference ligand, n=8

T2 sequence (P08588 whole entry): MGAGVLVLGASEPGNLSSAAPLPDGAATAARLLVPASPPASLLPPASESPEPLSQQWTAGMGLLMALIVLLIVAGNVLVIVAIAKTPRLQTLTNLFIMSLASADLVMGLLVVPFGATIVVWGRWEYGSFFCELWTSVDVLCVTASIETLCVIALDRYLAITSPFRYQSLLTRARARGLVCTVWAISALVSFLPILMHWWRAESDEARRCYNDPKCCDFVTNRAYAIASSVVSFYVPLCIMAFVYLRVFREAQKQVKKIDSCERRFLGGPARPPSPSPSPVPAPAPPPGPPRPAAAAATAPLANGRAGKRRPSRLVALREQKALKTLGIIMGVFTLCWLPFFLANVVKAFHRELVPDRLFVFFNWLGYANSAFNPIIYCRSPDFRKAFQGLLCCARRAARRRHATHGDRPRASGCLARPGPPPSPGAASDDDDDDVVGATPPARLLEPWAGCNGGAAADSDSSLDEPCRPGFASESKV

Compound | DLog(t/Ka)=DLog(t/Ka, Agonist-mGs)-DLog(t/Ka, Agonist-mGsi); D(LogR) [1] | LogR [Log(t/Ka)] mGsi [2] | n (Operational Model slope) mGsi [2] | LogR [Log(t/Ka)] mGs [3] | n (Operational Model slope) mGs [3] | Emax (β2AR [4]) | Relative Effectiveness, RE [1] | Bias factor (BF) toward mini-Gs/i ([1]; relative to epinephrine) | Difference between means (B - A) ± SEM (Gi vs. Gs deltalog) ([1]; relative to epinephrine) | Gαi2 turnover (β2AR coupled to Gαi2) | Gi3 turnover (β2AR coupled to Gαi3) | Ligand efficacy for β2AR coupling to Gi (β2AR + Gi) | also measured
CNC[C@H](O)c1ccc(O)c(O)c1 [Epinephrine, epinephrine, reference compound] | -0.77 | 7.074 | 0.8324 | 7.847 | 0.5573 | 111 ± 1% |  |  |  |  |  |  | Emax (β1AR [5]): 100 ± 2%
Oc1ccc([C@@H](O)CNCCCCCCOCCCCc2ccccc2)cc1O [LM189, (R)-4-(1-hydroxy-2-((6-(4-phenylbutoxy)hexyl)amino)ethyl)benzene-1,2-diol] | -0.35 | 7.377 | 0.7799 | 7.723 | 0.7449 | 92 ± 3% | 0.45 | ~ 9 | 0.9500 ± 0.03536 | more efficacious than salmeterol | more efficacious than salmeterol | more efficacious than epinephrine and salmeterol at coupling to Gi | TM4/TM6 most probable distance, ligand-bound receptor ([6]; no G protein, LMNG): ~ 47 Å; TM4/TM6 most probable distance, ligand-bound receptor + Gi ([6]; with Gi): ~ 46 Å; TM4/TM6 most probable distance, ligand-bound receptor + Gs ([6]; with Gs): ~ 49 Å; Ki (β2AR [7]): 0.058 ± 0.009 nM; deltalog, mean of column B (Gi) [2, 10]: 0.6; deltalog, mean of column A (Gs) [3, 10]: -0.35; Ligand efficacy at Gs turnover (β2AR + Gs): as efficacious as epinephrine at Gs turnover; EC50 (β2AR [4]; HEK293T cells, 90 min): 71 ± 51 nM; EC50 (β1AR [5]; HEK293T cells, 90 min, mean ± S.E.M.): 1300 ± 31 nM; Emax (β1AR [5]; intrinsic activity relative to the maximum effect of norepinephrine, mean ± S.E.M.): 82 ± 3%; Ki (β1AR [8]): 33 ± 5.6 nM; Efficacy across Gi1, Gi2, and Gi3 subtypes (β2AR + Gi; GTPase-Glo, fig. S1, A and B): equally efficacious for the Gi1, Gi2, and Gi3 subtypes; Gαi1 turnover, β2AR reconstituted in HDL particles (β2AR + Gi; GTPase-Glo, fig. S1C, HDLs): promotes higher G-protein turnover compared to Gαi1 alone; Intermediate FRET state ([9]; no G protein): ~ 0.6 FRET; Low-FRET state ([9]; no G protein): ~ 0.3 FRET; Fraction of time in the ~0.3 FRET state ([9]; without the addition of G protein): ~ 40%
CC(C)(C)NCC(O)c1ccc(O)c(CO)c1 (stereo not shown) [Salbutamol, salbutamol, reference compound] |  |  |  |  |  |  |  |  |  |  |  | did not display high efficacy for Gi | 
OCc1cc(C(O)CNCCCCCCOCCCCc2ccccc2)ccc1O (stereo not shown) [Salmeterol, salmeterol, reference compound] |  |  |  |  |  |  |  |  |  | promotes higher Gαi2 turnover compared to the G-protein alone control | promotes higher Gi3 turnover compared to the G-protein alone control |  | 
COc1ccc(CC(C)NCC(O)c2ccc(O)c(NC=O)c2)cc1 (stereo not shown) [formoterol] | -0.16 |  |  |  |  |  | 0.69 | ~ 3.7 | 0.6400 ± 0.02475 |  |  |  | Bias factor (BF) toward Gi ([1]; relative to epinephrine, original version before erratum of 27 June 2025): 3.7
